{
  "source": "patent US20190309044A1",
  "about": "“POLYPEPTIDES AND USES THEREOF AS A DRUG FOR TREATMENT OF AUTOIMMUNE DISORDERS” (Compugen Ltd., priority 2017, published 2019)",
  "key": {"[1]": {"tested_on": "TcK and macrophages co-cultures", "test": "TcK:macrophage co-culture cytokine secretion, healthy volunteers", "type": "cell-based, human", "settings": "buffy coats of healthy volunteers", "experimental": "• Purified CD4+ cells (2×10^6 cells/ml) are activated for 6 days in complete medium containing IL-15 (100 ng/ml), IL-6 (100 ng/ml) and TNFa (25 ng/ml).\nTcKs are added to macrophage culture following removal of existing culture media at a ratio of 4:1 (5×10^4 cells/well/CD4^+ T cells plus 2×10^5 cells/well CD14^+ Macrophages). C1ORF32 ECD-Fc (SEQ ID NO:43) or Control IgG are added at 1, 3, 10, 30 μg/ml. For additional controls co-cultures are added with vehicle or with medium only (Wennink et al., 2012).\nAfter 24 hrs of culture, cytokines (IL-10, IFN-α, IL-6, IL-12, RANTES, IL-13, IL-15, IL-17, MIP-1α, GM-CSF, IFNγ, TNFα, IL-1RA, IL-7, IL-1B, eotaxin, IL-2 IL-4 and IL-2R) are analyzed using ELISA and/or Luminex.\nCo-culture of TcK with autologeuos ex-vivo differentiated macrophages mimics one of the crucial pathways mediating synovial macrophage activation in RA thus serving as a translational tool for evaluating the therapeutic potential of drug candidates. Therefore the effect of C1ORF32 ECD-Fc (SEQ ID NO:43) was tested on the secretion of a range of pro-inflammatory and anti-inflammatory cytokines in such co-cultures. Two studies were carried out, one in which buffy coats from healthy volunteers was used and another study in which the responses of RA patients blood cells responses were compared to that of healthy voluntiers in which blood was used rather than buffy coats."}, "[2]": {"tested_on": "MS patients' PBMCs", "test": "Proliferation and cytokine secretion of PBMCs from MS patients", "type": "cell-based, human", "experimental": "PBMCs were taken from eight MS patients with diagnosed relapsing-remitting disease who have experienced a relapse 1-2 days prior to blood drawing.\nPBMCs were plated in a flat-bottom 96-well plate at 1e6 cells/well. The cells were cultured in the presence of anti-CD3 (0.5 ug/ml), MS-specific peptide MBP85-96 (10 ug/ml), or tetanus toxoid peptide TT830-843 (10 ug/ml). C1ORF32 ECD-Fc (SEQ ID NO: 43) or Control Ig were added to the cuture at the indicated concentrations. Two replicate plates were set to study for the effect of C1ORF32 ECD-Fc (SEQ ID NO: 43) on proliferation and on pro-inflammatory and anti-inflammatory cytokines secretion. To test for proliferation, the cultures were pulsed on day +1 of culture with 1uCi of tritiated thymidine and then harvested 3 days later on day +4 of culture. For cytokine analysis, super natantes from a replicate cultures were collected on day +4 of culture and tested using Millipore multiplex assay."}, "[3]": {"tested_on": "synovial-like T-cell - macrophage co-cultures", "test": "Synovial-like T-cell - macrophage co-cultures from RA patients not responding to TNF blockers, TNFa secretion", "type": "cell-based, human", "text": "The therapeutic potential of C1ORF32-ECD-FC (SEQ ID #43) for treating RA was studied in co-cultures of activated T cells and macrophages that were modified to mimic the deleterious interaction of these cells in RA synovium. This interaction drives the secretion of pro-inflammatory cytokines that play a major role in the pathology of RA, leading to progressive joint inflammation and to joint destruction. Thus, these co-cultures provide a translational tool to evaluate the effect of potential drugs for treatment of RA (Wenink et al., Ann Rheum Dis 2012; 71:1 80-83).\nPurified T cells and myeloid cells from blood of RA patients that fail to respond to treatment with TNF blockers were activated for 6 days with TNFa, IL-6 and IL-15 and co-cultures with Monocytes derived macrophages that were generated by activation of CD14+ monocytes with M-CSF for 6 days.\nThe amounts were administered as follows: FIG. 33: 30microg/ml of each protein; FIG. 34: 3, 10, 30microg/ml of each protein as shown."}, "[4]": {"tested_on": "healthy human skin transplanted onto beige-SCID mice", "test": "Humanized psoriasis model, human skin xenografts on beige-SCID mice", "type": "in vivo, mouse", "settings": "for proliferation index (% Ki-67 positive cells): vs vehicle; for Healthy Skin, number of grafts / Psoriasiform Skin, number of affected grafts / Partial Psoriasiform With Tendency Towards Healthy skin, number of grafts: histological evaluation, day 28; for epidermal thickness: vs vehicle treated group", "text": "In this model, psoriasis is induced in xenotransplants of healthy human skin transplanted onto beige severe combined immunodeficiency (SCID) mice followed by intradermal (i.d.) injection of IL-2 enriched Peripheral Blood Mononuclear Cells (PBMCs) isolated from blood of psoriasis patients (Nickoloff, 1995; Wrone-Smith, 1996 Gilhar et al., 2002, 2006, 2011). The activity of these compounds was compared to that of Enbrel, a TNF inhibitor which is an approved biological drug for treatment of psoriasis. As a control for model robustness, we used dexamethasone, a steroid with suppressive effects on inflammatory cytokines and chemokines such as TNF-alpha and interferon-gamma which cause severe psoriasis. All treatments were administered intradermally, except for dexamethasone which was given topically.\n2.2. Study Protocol A) Healthy human skin pieces with a width of 0.4 mm and surface area of 1.5×1.5 cm were provided from residual skin of routine plastic surgery procedures from the Plastic Surgery Department of the Rambam Medical Center, Israel. In addition, 20 mL blood samples were taken from psoriatic patients. B) Seventy (70) beige-severe combined immunodeficient mice (SCID) (weight ˜20-25 g) were included in this study. Normal healthy human donor skin was transplanted onto the beige-SCID mice as previously described (Nickoloff et al., 1995; Wrone-Smith, 1996; Gilhar et al., 2002, 2006, 2011; Kalish et al., 2009) and the mice were divided into 7 groups. C) Peripheral Blood Mononuclear Cells (PBMCs) isolated from psoriatic patients' blood were cultured in the presence of IL-2 [Prospec, 100 U/mL of RPMI 1640 media, 10% human AB serum (Sigma, St. Louis, Mo.), 1% glutamine, 1% antibiotics (media components; Biological Industries, Kibbutz Beit Haemeck, Israel)] for 14 days, as previously described (Gilhar et al, 2002). D) Four weeks following engraftment, each mouse was injected intra-dermally (i.d.) into the grafted skin lesion, with 1×10^7 activated allogeneic enriched PBMCs from psoriatic patients (FIG. 20). Cells from different psoriasis patients were equally distributed between treatment groups so that each patient is represented in each treatment group. E) On the day of PBMCs injection into the skin grafts, mice were divided randomly into treatment groups (n=9-10 mice per group) and administration of all drugs started (FIG. 20). All tested compounds including the vehicle were given intradermally (intralesional), three times a week, except for dexamethasone which was given topically for 14 consecutive days (Table 3).\nF) Twenty eight days after starting the injections and treatment, skin was harvested (FIG. 20). Grafts were analyzed for the following psoriatic parameters by histology: epidermal thickening (acanthosis), suprapapillary epidermal thinning (papillomatosis), hyperkeratosis, parakeratosis, orthokeratosis, agranulosis-hypogranulosis, appearance of neutrophils in the upper spinous layer or in the corneal cell layer—Munro microabscess, regular elongation of rete ridges, angiogenesis, edema and dilated tortuous blood vessels in the dermal papilla and mononuclear cell infiltrate in the papillary dermis. Epidermal thickness was measured as detailed below, and HLA-DR, ICAM-1, Ki-67 and immune infiltrates (anti-CD3 stain) were evaluated by immunohistochemistry (IHC).\nThe entire skin graft was excised and placed in 10% formal saline overnight. Then, the specimens were place in 70% ethanol and were embedded according to the standard H&E protocol. Histological assessment of the skin grafts was performed by light microscopy and evaluated by two blinded observers [the second observer evaluated random slides (about 25% of all slides) to compare the data obtained by the first observer. […] Epidermal thickness was determined with an ocular micrometer at a minimum of 50 points along the epidermis selected to represent points of maximal and minimal thickness.\nRepresentative grafts were allocated for IHC analysis. […]"}, "[5]": {"tested_on": "male DBA-1 mice", "test": "Established collagen induced arthritis (CIA), macroscopic and histological scores", "type": "in vivo, mouse", "settings": "Enbrel 5 mg/kg", "experimental": "Bovine type II collagen (CII) (RUNMC in house production, batch 03-04-08) at a concentration of 2 mg/ml in acetic acid 0.05M was emulsified in equal volumes of Freund's complete adjuvant (2 mg/ml of Mycobacterium tuberculosis strain H37Ra; Difco, Detroit, Mich.).\nOn day 0, 10-12 week old male DBA-1 mice (Janvier Elevage, France) (n=95) were immunized i.d. at the base of the tail with 100 μg of bovine CII. On day 21, mice received an intraperitoneal booster injection of 50 μg of CII dissolved in phosphate buffered saline (PBS), and the onset of arthritis occurred a few days after this booster.\nJoint inflammation in each paw was scored visually, using a scale of 0-2 per paw with a maximal score of 8 per animal: 0=non inflamed, 1=mild inflammation, 1.5=marked inflammation, and 2=severe inflammation. Scoring was performed three times a week.\nTreatment was started in established CIA early after onset of disease (i.e. therapeutic regimen), when the macroscopic scores per animal were between 0.25 and 1.25 (on a scale of 0-8). […] Histology was scored for inflammation and destruction on an arbitrary scale of 0-3, for five different parameters: […]\nJoints were fixed for at least 4 days in 4% formaldehyde, decalcified in 5% formic acid, and subsequently dehydrated and embedded in paraffin. […] The severity of inflammation in the joints was scored on a scale of 0-3 (0=no cells, 1=mild cellularity, 2=moderate cellularity, and 3=maximal cellularity). […] Depletion of PG was determined using an arbitrary scale of 0-3, ranging from normal, fully stained cartilage to destained cartilage, fully depleted of PGs. Chondrocyte death was scored on a scale of 0-3 ranging from no loss of chondrocyte nuclei to complete empty cartilage surface. The degree of cartilage surface erosion was scored on a scale of 0-3, ranging from no damage to complete loss of articular cartilage. […] Histopathological changes in the joint were scored on three semiserial sections of the joint spaced 70 μm apart. […]"}, "[6]": {"tested_on": "psoriasis patients", "settings": "at week 12; cited from earlier work"}},
  "note": "Several values for one entry are separate records, joined by “and”; a condition that tells them apart may be missing. Equal values may be shown once. Entries after “also recorded” stand apart in the source; their conditions may differ.",
  "data": [
    {"compound": "C1ORF32 ECD-Fc (SEQ ID NO: 43): human-human fusion protein: human C1ORF32 ECD fused to human immunoglobulin Fc (SEQ ID NO:43)", "values": [
      {"measurement": "secretion of TNFa, RANTES, MIP-1a, GM-CSF and IL-5", "setting": "[1]", "value": "inhibited"},
      {"measurement": "proliferation, secretion of IFNg, IL-17 and TNFa", "setting": "[2]; absence of activation", "value": "no effect"},
      {"measurement": "IL-10, IL-4, TGFb and IL-6", "setting": "[2]; absence of activation, in some of the donors", "value": "elevation"},
      {"measurement": "IL-4, IL-10, TGFb and IL-6 secretion", "setting": "[2]; activated ex-vivo with MBP85-96", "value": "increase"},
      {"measurement": "TNFa secretion", "setting": "[3]; Example 20, 30 microg/ml", "value": "decreased the secretion of TNFα"},
      {"measurement": "TNFa secretion in one of the donors", "setting": "[3]; Example 20, 30 microg/ml", "value": "inhibited TNFα secretion"},
      {"measurement": "TNFa secretion", "setting": "[3]; Example 21, 3, 10, 30 microg/ml", "value": "decreased the secretion of TNFa; also recorded: inhibition of TNFa secretion in a dose dependent manner"},
      {"measurement": "expression of HLA-DR, ICAM-1 and Ki-67", "setting": "[4]; IHC", "value": "decreased expression"},
      {"measurement": "proliferation index (% Ki-67 positive cells)", "setting": "[4]; IHC", "value": "trend towards decrease"},
      {"measurement": "proliferation index (% Ki-67 positive cells)", "setting": "[4]; IHC, listed as C1ORF ECD-Fc (SEQ ID NO:43)", "value": "most pronounced reduction"},
      {"measurement": "Healthy Skin, number of grafts", "setting": "[4]", "value": "5/9"},
      {"measurement": "Psoriasiform Skin, number of affected grafts", "setting": "[4]", "value": "4/9"},
      {"measurement": "cases in which disease symptoms were eliminated", "setting": "[4]; summary in detailed description", "value": "about a third of the cases"},
      {"measurement": "epidermal thickness", "setting": "[4]; listed as C1ORF ECD-Fc (SEQ ID NO:43)", "value": "significant reduction"}
    ]},
    {"compound": "C[C@@H]1C[C@H]2[C@@H]3CCC4=CC(=O)C=C[C@]4(C)[C@@]3(F)[C@@H](O)C[C@]2(C)[C@@]1(O)C(=O)CO", "note": "[dexamethasone]", "values": [
      {"measurement": "Healthy Skin, number of grafts", "setting": "[4]", "value": "7/10"},
      {"measurement": "Partial Psoriasiform With Tendency Towards Healthy skin, number of grafts", "setting": "[4]", "value": 1},
      {"measurement": "Psoriasiform Skin, number of affected grafts", "setting": "[4]", "value": "2 and 2/10"},
      {"measurement": "Partial Psoriasiform With Tendency Towards Healthy skin, number of grafts", "setting": "[4]; listed as Dexa", "value": "1/10"},
      {"measurement": "Psoriasiform Skin, number of affected grafts", "setting": "[4]; listed as Dexa", "value": "2/10"},
      {"measurement": "grafts with moderate lymphocytic infiltration", "setting": "[4]; mouse, in vivo", "value": "1/10"}
    ]},
    {"compound": "Enbrel", "values": [
      {"measurement": "bone erosions, histology", "setting": "[5]", "value": "significant reduction"},
      {"measurement": "proliferation index (% Ki-67 positive cells)", "setting": "[4]; IHC", "value": "trend of decrease"},
      {"measurement": "Healthy Skin, number of grafts", "setting": "[4]", "value": "3/9"},
      {"measurement": "Psoriasiform Skin, number of affected grafts", "setting": "[4]", "value": "6/9"},
      {"measurement": "epidermal thickness", "setting": "[4]", "value": "no substantial effect; also recorded: no significant reduction"},
      {"measurement": "psoriasis patients achieving PASI 75", "setting": "[6]", "value": "Forty nine"}
    ]}
  ]
}
